The structures appear in SMILES notation.

One assay addresses Nitric oxide synthase 1 (Rattus norvegicus, UniProt P29476). Nature of the assay: Inhibition of recombinant rat nNOS expressed in Escherichia coli using L-arginine as substrate assessed as formation of nitric oxide measured up to 60 secs by hemoglobin capture assay.
Assay [1] can be described thus: Selectivity ratio of Ki for recombinant bovine eNOS to Ki for recombinant rat nNOS.
The nature of assay [2]: Selectivity ratio of Ki for recombinant mouse macrophage iNOS to Ki for recombinant rat nNOS.
The target in assay [3] is T1, Nitric oxide synthase, inducible (Mus musculus, UniProt P29477).
T1 sequence (P29477 whole entry): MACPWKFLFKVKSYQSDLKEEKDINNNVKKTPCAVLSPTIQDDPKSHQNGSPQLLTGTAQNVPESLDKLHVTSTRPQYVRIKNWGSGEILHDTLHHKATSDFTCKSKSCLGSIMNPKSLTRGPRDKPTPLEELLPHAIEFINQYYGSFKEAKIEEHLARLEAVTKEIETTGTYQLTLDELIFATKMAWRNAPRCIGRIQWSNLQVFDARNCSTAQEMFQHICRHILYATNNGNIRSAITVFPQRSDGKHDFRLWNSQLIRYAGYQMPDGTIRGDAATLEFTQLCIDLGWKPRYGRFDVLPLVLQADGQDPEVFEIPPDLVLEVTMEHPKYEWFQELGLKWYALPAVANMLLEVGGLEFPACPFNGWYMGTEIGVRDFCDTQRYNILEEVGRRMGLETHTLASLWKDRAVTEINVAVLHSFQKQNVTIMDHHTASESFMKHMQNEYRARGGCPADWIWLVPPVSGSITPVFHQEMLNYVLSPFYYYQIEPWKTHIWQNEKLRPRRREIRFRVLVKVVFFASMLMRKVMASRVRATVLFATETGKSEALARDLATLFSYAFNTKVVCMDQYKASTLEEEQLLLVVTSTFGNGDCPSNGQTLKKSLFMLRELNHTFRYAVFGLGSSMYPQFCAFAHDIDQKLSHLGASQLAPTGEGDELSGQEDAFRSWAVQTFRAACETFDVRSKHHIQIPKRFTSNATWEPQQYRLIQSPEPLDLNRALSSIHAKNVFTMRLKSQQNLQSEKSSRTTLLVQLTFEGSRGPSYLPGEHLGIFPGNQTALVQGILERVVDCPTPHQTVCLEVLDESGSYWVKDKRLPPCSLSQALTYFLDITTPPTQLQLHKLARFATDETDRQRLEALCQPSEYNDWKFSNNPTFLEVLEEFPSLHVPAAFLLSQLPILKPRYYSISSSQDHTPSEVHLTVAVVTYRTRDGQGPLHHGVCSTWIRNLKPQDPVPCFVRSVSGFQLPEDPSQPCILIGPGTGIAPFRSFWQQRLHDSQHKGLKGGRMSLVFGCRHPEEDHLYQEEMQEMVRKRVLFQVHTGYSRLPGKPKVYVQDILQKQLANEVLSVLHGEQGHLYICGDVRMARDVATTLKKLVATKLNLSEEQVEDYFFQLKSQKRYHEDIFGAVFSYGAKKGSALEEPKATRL
Nature of the assay: Inhibition of recombinant mouse macrophage iNOS expressed in Escherichia coli using L-arginine as substrate assessed as formation of nitric oxide measured up to 60 secs by hemoglobin capture assay.

In a further assay the target is T2, Nitric oxide synthase 3 (Bos taurus, UniProt P29473).
T2 sequence (P29473 whole entry): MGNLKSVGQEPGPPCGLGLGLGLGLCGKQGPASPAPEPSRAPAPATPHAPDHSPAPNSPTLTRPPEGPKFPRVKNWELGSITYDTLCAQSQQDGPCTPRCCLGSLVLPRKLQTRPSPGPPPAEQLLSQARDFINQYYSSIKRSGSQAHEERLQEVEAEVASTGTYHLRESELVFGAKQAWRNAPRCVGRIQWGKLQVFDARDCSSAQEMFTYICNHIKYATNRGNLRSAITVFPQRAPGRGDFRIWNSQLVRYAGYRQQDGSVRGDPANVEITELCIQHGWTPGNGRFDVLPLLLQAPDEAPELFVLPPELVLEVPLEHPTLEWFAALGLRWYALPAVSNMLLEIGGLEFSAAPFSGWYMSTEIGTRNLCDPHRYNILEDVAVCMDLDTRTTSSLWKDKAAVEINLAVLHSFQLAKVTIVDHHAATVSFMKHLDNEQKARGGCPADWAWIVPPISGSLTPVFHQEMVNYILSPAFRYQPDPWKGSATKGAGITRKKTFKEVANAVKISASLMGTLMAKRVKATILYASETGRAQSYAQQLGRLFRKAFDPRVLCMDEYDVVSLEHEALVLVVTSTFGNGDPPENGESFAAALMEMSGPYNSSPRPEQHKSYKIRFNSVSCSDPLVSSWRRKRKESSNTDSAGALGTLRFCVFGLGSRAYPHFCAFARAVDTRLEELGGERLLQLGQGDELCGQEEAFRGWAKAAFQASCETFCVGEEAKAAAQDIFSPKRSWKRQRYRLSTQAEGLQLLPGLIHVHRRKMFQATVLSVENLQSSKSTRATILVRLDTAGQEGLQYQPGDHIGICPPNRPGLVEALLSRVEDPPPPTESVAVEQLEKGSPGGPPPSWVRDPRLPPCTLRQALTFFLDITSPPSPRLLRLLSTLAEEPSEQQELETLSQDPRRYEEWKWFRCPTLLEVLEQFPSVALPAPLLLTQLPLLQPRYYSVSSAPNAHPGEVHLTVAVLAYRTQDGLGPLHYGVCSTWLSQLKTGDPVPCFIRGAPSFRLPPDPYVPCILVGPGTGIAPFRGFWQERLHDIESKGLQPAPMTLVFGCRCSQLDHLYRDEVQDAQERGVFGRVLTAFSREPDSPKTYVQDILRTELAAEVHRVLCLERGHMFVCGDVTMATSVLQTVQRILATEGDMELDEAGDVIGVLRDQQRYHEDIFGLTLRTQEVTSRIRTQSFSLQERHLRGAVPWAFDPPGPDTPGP
Nature of the assay: Inhibition of recombinant bovine eNOS expressed in Escherichia coli using L-arginine as substrate assessed as formation of nitric oxide measured up to 60 secs by hemoglobin capture assay.

Chain of Nitric oxide synthase 1 (P29476 whole entry): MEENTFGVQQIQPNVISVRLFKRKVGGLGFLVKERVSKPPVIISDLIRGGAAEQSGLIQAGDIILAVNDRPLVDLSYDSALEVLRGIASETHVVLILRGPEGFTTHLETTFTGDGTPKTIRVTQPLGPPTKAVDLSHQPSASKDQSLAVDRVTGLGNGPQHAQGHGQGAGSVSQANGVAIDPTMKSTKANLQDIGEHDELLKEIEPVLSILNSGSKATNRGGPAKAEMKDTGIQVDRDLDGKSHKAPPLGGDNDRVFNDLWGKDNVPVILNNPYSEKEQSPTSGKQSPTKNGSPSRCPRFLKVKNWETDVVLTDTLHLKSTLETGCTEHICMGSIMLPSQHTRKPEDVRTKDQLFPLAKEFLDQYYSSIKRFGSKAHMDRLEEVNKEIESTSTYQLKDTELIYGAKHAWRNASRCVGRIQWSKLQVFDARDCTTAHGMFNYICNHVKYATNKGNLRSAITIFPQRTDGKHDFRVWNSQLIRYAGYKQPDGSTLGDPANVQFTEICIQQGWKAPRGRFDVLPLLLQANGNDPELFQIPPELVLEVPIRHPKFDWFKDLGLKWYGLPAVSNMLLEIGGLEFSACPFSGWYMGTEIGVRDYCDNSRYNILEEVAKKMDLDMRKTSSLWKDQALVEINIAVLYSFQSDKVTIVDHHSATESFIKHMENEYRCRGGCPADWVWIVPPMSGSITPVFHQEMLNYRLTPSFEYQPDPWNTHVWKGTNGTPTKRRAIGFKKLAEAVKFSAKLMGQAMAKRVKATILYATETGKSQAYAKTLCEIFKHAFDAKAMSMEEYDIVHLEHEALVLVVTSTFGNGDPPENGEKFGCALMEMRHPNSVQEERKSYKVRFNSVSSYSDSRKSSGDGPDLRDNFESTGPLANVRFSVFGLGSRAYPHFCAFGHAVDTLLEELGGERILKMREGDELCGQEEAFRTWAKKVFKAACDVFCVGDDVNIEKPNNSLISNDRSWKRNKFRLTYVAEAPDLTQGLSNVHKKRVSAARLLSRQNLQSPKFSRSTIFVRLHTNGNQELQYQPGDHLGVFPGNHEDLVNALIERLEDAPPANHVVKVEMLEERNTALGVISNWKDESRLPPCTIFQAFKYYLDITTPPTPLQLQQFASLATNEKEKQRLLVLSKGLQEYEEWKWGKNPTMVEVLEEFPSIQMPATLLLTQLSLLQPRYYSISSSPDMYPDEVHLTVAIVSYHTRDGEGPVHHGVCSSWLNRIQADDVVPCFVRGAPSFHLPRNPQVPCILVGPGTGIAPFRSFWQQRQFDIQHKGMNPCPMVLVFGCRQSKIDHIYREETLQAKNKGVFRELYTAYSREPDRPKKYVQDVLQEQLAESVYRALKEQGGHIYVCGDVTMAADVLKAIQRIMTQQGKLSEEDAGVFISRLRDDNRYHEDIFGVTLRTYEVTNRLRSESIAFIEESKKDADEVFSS

What is called Ki is a measure of affinity in units of concentration, obtained from inhibition or displacement. `Cc1cc(N)nc(COc2ccccc2-c2ccccc2OCc2ccncc2)c1`: the Ki on Nitric oxide synthase 1 amounted to 3.85 µM.

In the case of `Cc1cc(N)nc(COCc2cccc(CNCCc3cccc(F)c3)n2)c1`, the results for the Ratio Ki in assay [1] and in assay [2] were 21 and 31, respectively. The Ki in assay [3] was determined as 8.43 µM; on Nitric oxide synthase 3 it was 5.62 µM; at Nitric oxide synthase 1 it was 0.27 µM.

Consider `Cc1cc(N)nc(COc2cccc(OCCCN)c2)c1`, for which the Ratio Ki is 298 in assay [1] and 140 in assay [2].

With `Cc1cc(N)nc(COc2cccc(OCC3CCNCC3)c2)c1`, the Ratio Ki in assay [1] is 239; in assay [2] it was 146.

`Cc1cc(N)nc(COc2cccc(OCc3ccncc3)c2)c1`: the values for the Ratio Ki in assay [1] and in assay [2] were 102 and 44, respectively.

Take `Cc1cc(N)nc(CCCCCc2cc(C)cc(N)n2)c1`: the Ki in assay [3] was found to be 0.375 µM.

`Cc1cc(N)nc(COc2cccc(NCCc3cccc(F)c3)c2)c1`: on Nitric oxide synthase 1, the Ki worked out at 2.16 µM.

`Cc1cc(N)nc(COc2ccccc2-c2ccccc2OCC2CCNCC2)c1`: the Ki on Nitric oxide synthase 1 amounted to 4.23 µM.

For the compound `Cc1cc(N)nc(CCCCCCc2cc(C)cc(N)n2)c1`, the Ratio Ki in assay [1] came to 86; in assay [2], 54. Also, the Ki is 1.8 µM in assay [3], 2.84 µM on Nitric oxide synthase 3 and 0.033 µM on Nitric oxide synthase 1.

Consider `Cc1cc(N)nc(CCCCCCCc2cc(C)cc(N)n2)c1`, for which the Ratio Ki in assay [1] and in assay [2] was 25 in each case. For the same compound, the Ki in assay [3] turned out to be 2.19 µM; on Nitric oxide synthase 3 it was 2.15 µM; on Nitric oxide synthase 1, 0.086 µM.
